Legend:
Assay type in all cases: functional
SK-OV-3 = test: Cytotoxicity against human SKOV3 cells incubated for 48 hrs by sulforhodamine B assay; conditions: SK-OV-3, 48 h
SF-539 [1] = test: Cytotoxicity against human SF539 cells assessed as cell growth at 100 uM incubated for 48 hrs by sulforhodamine B assay relative to control; conditions: SF-539, 48 h, read-out: Activity
SF-539 [2] = test: Cytotoxicity against human SF539 cells assessed as cell growth at 0.1 uM incubated for 48 hrs by sulforhodamine B assay relative to control; conditions: SF-539, 48 h, read-out: Activity
SF-268 = test: Cytotoxicity against human SF268 cells assessed as cell growth at 100 uM incubated for 48 hrs by sulforhodamine B assay relative to control; conditions: SF-268, 48 h, read-out: Activity
SW-620 = test: Cytotoxicity against human SW620 cells assessed as cell growth at 100 uM incubated for 48 hrs by sulforhodamine B assay relative to control; conditions: SW-620, 48 h, read-out: Activity
OVCAR-3 = test: Cytotoxicity against human OVCAR3 cells assessed as cell growth at 0.01 uM incubated for 48 hrs by sulforhodamine B assay relative to control; conditions: OVCAR-3, 48 h, read-out: Activity
MDA-MB-231 = test: Cytotoxicity against human MDA-MB-231 cells assessed as cell growth at 100 uM incubated for 48 hrs by sulforhodamine B assay relative to control; conditions: MDA-MB-231, 48 h, read-out: Activity
Hs-578T [3] = test: Cytotoxicity against human Hs 578T cells assessed as cell growth at 100 uM incubated for 48 hrs by sulforhodamine B assay relative to control; conditions: read-out: Activity
HOP-92 = test: Cytotoxicity against human HOP92 cells assessed as cell growth at 0.1 uM incubated for 48 hrs by sulforhodamine B assay relative to control; conditions: HOP-92, 48 h, read-out: Activity
NCI-H23 = test: Cytotoxicity against human NCI-H23 cells incubated for 48 hrs by sulforhodamine B assay; conditions: NCI-H23, 48 h
SF-539 [4] = test: Cytotoxicity against human SF539 cells assessed as cell growth at 1 uM incubated for 48 hrs by sulforhodamine B assay relative to control; conditions: SF-539, 48 h, read-out: Activity
786-0 = test: Cytotoxicity against human 786-0 cells assessed as cell growth at 1 uM incubated for 48 hrs by sulforhodamine B assay relative to control; conditions: 786-0, 48 h, read-out: Activity
U-251 [5] = test: Cytotoxicity against human U251 cells assessed as cell growth at 10 uM incubated for 48 hrs by sulforhodamine B assay relative to control; conditions: U-251, 48 h, read-out: Activity
NCI-H226 = test: Cytotoxicity against human NCI-H226 cells assessed as cell growth at 10 uM incubated for 48 hrs by sulforhodamine B assay relative to control; conditions: NCI-H226, 48 h, read-out: Activity
HL-60(TB) = test: Cytotoxicity against human HL-60(TB) cells assessed as cell growth at 0.01 uM incubated for 48 hrs by sulforhodamine B assay relative to control; conditions: HL-60, 48 h, read-out: Activity
Hs-578T [6] = test: Cytotoxicity against human Hs 578T cells assessed as cell growth at 1 uM incubated for 48 hrs by sulforhodamine B assay relative to control; conditions: read-out: Activity
BT-549 = test: Cytotoxicity against human BT549 cells assessed as cell growth at 1 uM incubated for 48 hrs by sulforhodamine B assay relative to control; conditions: BT-549, 48 h, read-out: Activity
RXF 393 = test: Cytotoxicity against human RXF393 cells assessed as cell growth at 10 uM incubated for 48 hrs by sulforhodamine B assay relative to control; conditions: RXF 393, 48 h, read-out: Activity
LOX IMVI = test: Cytotoxicity against human LOXIMVI cells assessed as cell growth at 10 uM incubated for 48 hrs by sulforhodamine B assay relative to control; conditions: read-out: Activity
MDA-MB-468 = test: Cytotoxicity against human MDA-MB-468 cells incubated for 48 hrs by sulforhodamine B assay; conditions: MDA-MB-468, 48 h
M14 = test: Cytotoxicity against human M14 cells assessed as cell growth at 0.01 uM incubated for 48 hrs by sulforhodamine B assay relative to control; conditions: M14, 48 h, read-out: Activity
K562 = test: Cytotoxicity against human K562 cells assessed as cell growth at 0.01 uM incubated for 48 hrs by sulforhodamine B assay relative to control; conditions: K562, 48 h, read-out: Activity
U-251 [7] = test: Cytotoxicity against human U251 cells assessed as cell growth at 1 uM incubated for 48 hrs by sulforhodamine B assay relative to control; conditions: U-251, 48 h, read-out: Activity
OVCAR-8 [8] = test: Cytotoxicity against human OVCAR8 cells assessed as cell growth at 0.01 uM incubated for 48 hrs by sulforhodamine B assay relative to control; conditions: OVCAR-8, 48 h, read-out: Activity
OVCAR-5 = test: Cytotoxicity against human OVCAR5 cells assessed as cell growth at 1 uM incubated for 48 hrs by sulforhodamine B assay relative to control; conditions: OVCAR-5, 48 h, read-out: Activity
OVCAR-8 [9] = test: Cytotoxicity against human OVCAR8 cells assessed as cell growth at 10 uM incubated for 48 hrs by sulforhodamine B assay relative to control; conditions: OVCAR-8, 48 h, read-out: Activity
HCC 2998 = test: Cytotoxicity against human HCC2998 cells assessed as cell growth at 100 uM incubated for 48 hrs by sulforhodamine B assay relative to control; conditions: HCC 2998, 48 h, read-out: Activity
A549 = test: Cytotoxicity against human A549/ATCC cells assessed as cell growth at 1 uM incubated for 48 hrs by sulforhodamine B assay relative to control; conditions: A549, 48 h, read-out: Activity
SR = test: Cytotoxicity against human SR cells assessed as cell growth at 0.01 uM incubated for 48 hrs by sulforhodamine B assay relative to control; conditions: read-out: Activity
MCF7 = test: Cytotoxicity against human MCF7 cells assessed as cell growth at 10 uM incubated for 48 hrs by sulforhodamine B assay relative to control; conditions: MCF7, 48 h, read-out: Activity
SK-MEL-5 = test: Cytotoxicity against human SK-MEL-5 cells incubated for 48 hrs by sulforhodamine B assay; conditions: SK-MEL-5, 48 h

SMILES: COc1ccc(-c2nocc2-c2cc(OC)c(OC)c(OC)c2)cc1
- GI50 (SK-OV-3; read-out: GI50): 0.296 µM
- LC50 (SK-OV-3; read-out: LC50): > 100 µM
- TGI (SK-OV-3; read-out: TGI): > 100 µM
- GI50 (SK-OV-3; read-out: pGI50 (converted)): 0.295 µM
- LC50 (SK-OV-3; read-out: pLC50 (converted)): > 100 µM
- TGI (SK-OV-3; read-out: pTGI): > 100 µM
- growth at 100 µM (SF-539 [1]): -15%
- growth at 0.1 µM (SF-539 [2]): 65%
- growth at 100 µM (SF-268): 1%
- growth at 100 µM (SW-620): 7%
- growth at 0.01 µM (OVCAR-3): 100%
- growth at 100 µM (MDA-MB-231): -15%
- growth at 100 µM (Hs-578T [3]): 10%
- growth at 0.1 µM (HOP-92): 72%
- GI50 (NCI-H23; read-out: GI50): 0.283 µM
- CC50 (NCI-H23; read-out: LC50 (the source's name)): > 100 µM
- TGI (NCI-H23; read-out: TGI): 74.9 µM
- GI50 (NCI-H23; read-out: pGI50 (converted)): 0.282 µM
- CC50 (NCI-H23; read-out: pLC50 (the source's name) (converted)): > 100 µM
- TGI (NCI-H23; read-out: pTGI (converted)): 74.1 µM
- growth at 1 µM (SF-539 [4]): 1%
- growth at 1 µM (786-0): 37%
- growth at 10 µM (U-251 [5]): 19%
- growth at 10 µM (NCI-H226): 67%
- growth at 0.01 µM (HL-60(TB)): 105%
- growth at 1 µM (Hs-578T [6]): 31%
- growth at 1 µM (BT-549): 33%
- growth at 10 µM (RXF 393): 1%
- growth at 10 µM (LOX IMVI): 21%
- GI50 (MDA-MB-468; read-out: GI50): 0.123 µM
- LC50 (MDA-MB-468; read-out: LC50): > 100 µM
- TGI (MDA-MB-468; read-out: TGI): 13.8 µM
- GI50 (MDA-MB-468; read-out: pGI50 (converted)): 0.123 µM
- LC50 (MDA-MB-468; read-out: pLC50 (converted)): > 100 µM
- TGI (MDA-MB-468; read-out: pTGI (converted)): 13.8 µM
- growth at 0.01 µM (M14): 90%
- growth at 0.01 µM (K562): 103%
- growth at 1 µM (U-251 [7]): 22%
- growth at 0.01 µM (OVCAR-8 [8]): 103%
- growth at 1 µM (OVCAR-5): 53%
- growth at 10 µM (OVCAR-8 [9]): 25%
- growth at 100 µM (HCC 2998): -47%
- growth at 1 µM (A549): 28%
- growth at 0.01 µM (SR): 99%
- growth at 10 µM (MCF7): 14%
- GI50 (SK-MEL-5; read-out: GI50): 0.0715 µM
- LC50 (concentration killing 50% of cells) (SK-MEL-5; read-out: LC50): 27.7 µM
- TGI (SK-MEL-5; read-out: TGI): 5.25 µM
- GI50 (SK-MEL-5; read-out: pGI50 (converted)): 0.0708 µM
- LC50 (concentration killing 50% of cells) (SK-MEL-5; read-out: pLC50 (converted)): 27.5 µM
- TGI (SK-MEL-5; read-out: pTGI): 5.25 µM

Source: ChEMBL document CHEMBL4145521, “Regioselective synthesis of 3,4-diaryl-5-unsubstituted isoxazoles, analogues of natural cytostatic combretastatin A4” (Eur J Med Chem, 2018)
